Among the test systems are MOLT-4; Malme-3M; SF-539; HCT-15; MDA-N; COLO 205; MDA-MB-435; OVCAR-4; UACC-62; CCRF-CEM; EKVX; OVCAR-3; BT-549; SNB-19; UO-31; SF-268; SR; NCI/ADR-RES; HL-60.
Common to all, as to test: NCI-60 cell line screen, 48 h

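Method: 48-hour compound exposure of cells in 96-well plates, five concentrations, linear interpolation of endpoints. GI50 marks 50% less growth.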 The source made the active and inactive calls. Cut-off read from the data, not from the text of the source: active = GI50 up to about 1.1 µM and inactive = higher.

Turning to `COc1ccc(CN(CCc2c[nH]c3ccccc23)Cc2ccc(OC)cc2)cc1`, the GI50 in the test with MOLT-4 was > 21 µM (inactive); with Malme-3M, 3.04 µM (inactive); with SF-539, 1.56 µM (inactive); in the test on HCT-15 it was 3.44 µM; in the test on MDA-N it was 1.92 µM (inactive); with COLO 205, 2.04 µM (inactive). The GI50 with MDA-MB-435 was 2.76 µM (inactive); with OVCAR-4 it was 3.88 µM (inactive); in the test with UACC-62 it was 2.14 µM (inactive); in the test with CCRF-CEM it was 6.67 µM (inactive); with EKVX, 5.26 µM (inactive); in the test with OVCAR-3, 3.23 µM (inactive). Further, the GI50 in the test with BT-549 is 5.71 µM (inactive); in the test with SNB-19, 5.13 µM (inactive); in the test with UO-31, 1.47 µM (inactive); with SF-268 it was 4.39 µM (inactive); in the test with SR it was 7.57 µM (inactive); in the test with NCI/ADR-RES, 3.2 µM (inactive).

In the case of `CN(C)CCNC(=O)c1cccc(NC(=O)c2ccccc2)c1[N+](=O)[O-]`, the GI50 in the test on MOLT-4 is > 100 µM (inactive); in the test on Malme-3M, 12.8 µM (inactive); in the test on HCT-15, above 100 µM; in the test on MDA-N, > 100 µM (inactive); with COLO 205, 8.65 µM (inactive); in the test on MDA-MB-435, > 100 µM (inactive). Besides, the GI50 with UACC-62 was > 100 µM (inactive); in the test with CCRF-CEM it was > 100 µM (inactive); with HL-60, > 100 µM (inactive); in the test on OVCAR-3, 27.7 µM (inactive); in the test on BT-549, 53.8 µM (inactive); with SNB-19 it was > 100 µM (inactive). Further, the GI50 in the test on UO-31, in the test with SF-268 and with NCI/ADR-RES was > 100 µM (inactive) each time.

Regarding `N#Cc1nc(COCc2ccccc2)oc1N`, the GI50 in the test with MOLT-4 is > 100 µM (inactive); in the test on Malme-3M, 28.7 µM (inactive); in the test with SF-539, > 100 µM (inactive); in the test on HCT-15 it was 51.1 µM; with MDA-N it was > 100 µM (inactive); in the test with COLO 205, > 100 µM (inactive). Also, the GI50 is > 100 µM (inactive) in the test with MDA-MB-435; > 100 µM (inactive) with OVCAR-4; > 100 µM (inactive) in the test on UACC-62; 17.9 µM (inactive) in the test with CCRF-CEM; > 100 µM (inactive) in the test on EKVX; > 100 µM (inactive) in the test with OVCAR-3. Moreover, the GI50 was 29.6 µM (inactive) in the test on BT-549; > 100 µM (inactive) in the test with SNB-19; > 100 µM (inactive) in the test with UO-31; > 100 µM (inactive) in the test on SF-268; > 100 µM (inactive) in the test on SR; > 100 µM (inactive) with NCI/ADR-RES.

With `COCN1C(=O)[C@@H]2CCCN2C(=O)c2cc(Cl)ccc21`, the GI50 in the test with MOLT-4 was > 100 µM (inactive); in the test on Malme-3M, > 100 µM (inactive); in the test on HCT-15, above 100 µM; in the test with MDA-N, > 100 µM (inactive); in the test on COLO 205 it was > 100 µM (inactive); with MDA-MB-435 it was > 100 µM (inactive). In addition, the GI50 with OVCAR-4, in the test with UACC-62, with EKVX, in the test on BT-549, in the test with SNB-19 and in the test with UO-31 was > 100 µM (inactive) each time. For the same compound, the GI50 with SF-268, in the test with SR and in the test on NCI/ADR-RES was > 100 µM (inactive) in each case.

For `CCOC(=O)/C=C/[C@H](O[Si](CC)(CC)CC)C(C)(C)C`, the GI50 in the test on MOLT-4 was 77.1 µM (inactive); in the test with Malme-3M it was > 100 µM (inactive); in the test on SF-539 it was > 100 µM (inactive); with HCT-15, 41.5 µM; in the test on MDA-N it was 78.2 µM (inactive); in the test on COLO 205 it was 80.5 µM (inactive). Also, the GI50 with MDA-MB-435 is 59 µM (inactive); in the test on OVCAR-4, 48.1 µM (inactive); with UACC-62, 90.2 µM (inactive); with CCRF-CEM it was 22.4 µM (inactive); in the test with EKVX, 40.5 µM (inactive); with OVCAR-3, 52.7 µM (inactive). The GI50 was > 100 µM (inactive) in the test with BT-549; 36.3 µM (inactive) with SNB-19; > 100 µM (inactive) in the test with UO-31; > 100 µM (inactive) in the test with SF-268; 22.7 µM (inactive) in the test with SR; > 100 µM (inactive) with NCI/ADR-RES.

With `Cc1cc(C)c(S(=O)(=O)N2CCN(S(=O)(=O)c3c(C)cc(C)cc3C)OCCCCCO2)c(C)c1`, the GI50 in the test with MOLT-4 was > 100 µM (inactive); with Malme-3M, > 100 µM (inactive); in the test on HCT-15, above 100 µM; with MDA-N it was > 100 µM (inactive); in the test with COLO 205 it was > 100 µM (inactive); in the test with MDA-MB-435, > 100 µM (inactive). The GI50 in the test on OVCAR-4, in the test on UACC-62, with CCRF-CEM, in the test with HL-60, in the test with EKVX and in the test with OVCAR-3 was > 100 µM (inactive) each time. The GI50 in the test on BT-549, in the test with SNB-19, in the test with UO-31, with SF-268 and with NCI/ADR-RES was > 100 µM (inactive) in each case.

Take `CCNc1nc2c(ncn2C2CC(O)C(COP(=O)(O)O)O2)c(=O)[nH]1` (stereo unspecified): the GI50 with Malme-3M is > 100 µM (inactive); with SF-539, > 100 µM (inactive); in the test on HCT-15 it was above 100 µM; with MDA-N, > 100 µM (inactive); in the test on COLO 205, > 100 µM (inactive); in the test on MDA-MB-435, > 100 µM (inactive). In addition, the GI50 with OVCAR-4, in the test with UACC-62, in the test with HL-60, in the test on EKVX, in the test on OVCAR-3 and in the test with BT-549 was > 100 µM (inactive) in each case. In addition, the GI50 was > 100 µM (inactive) in the test with SNB-19, > 100 µM (inactive) with SF-268, 86.3 µM (inactive) in the test on SR and > 100 µM (inactive) with NCI/ADR-RES.

`Cc1ccc(S(=O)(=O)N2CCC(=O)c3cc(Br)ccc32)cc1`: the GI50 with MOLT-4 was 4.51 µM (inactive); with Malme-3M, 22 µM (inactive); in the test on SF-539, 5 µM (inactive); with HCT-15, 4.88 µM; in the test on MDA-N, 3.01 µM (inactive); in the test with COLO 205 it was 16.9 µM (inactive). Further, the GI50 with MDA-MB-435 is 1.79 µM (inactive); with OVCAR-4 it was 16.8 µM (inactive); in the test with UACC-62, 5.21 µM (inactive); with EKVX, 23.9 µM (inactive); in the test on OVCAR-3 it was 9.93 µM (inactive); in the test with BT-549, 13.9 µM (inactive). Moreover, the GI50 in the test on SNB-19 is 18.4 µM (inactive); in the test with UO-31, 10.9 µM (inactive); in the test with SF-268, 18.2 µM (inactive); in the test with SR, 3.96 µM (inactive); in the test on NCI/ADR-RES, 6.56 µM (inactive).

Turning to `CN1C(=O)C23CCCC2CC1(c1ccccc1)S3` (stereo unspecified), the GI50 in the test with MOLT-4 was > 100 µM (inactive); with Malme-3M it was > 100 µM (inactive); in the test with SF-539 it was > 100 µM (inactive); in the test with HCT-15, above 100 µM; in the test on MDA-N, > 100 µM (inactive); in the test with COLO 205, > 100 µM (inactive). Besides, the GI50 was > 100 µM (inactive) in the test on MDA-MB-435; 56.1 µM (inactive) with OVCAR-4; > 100 µM (inactive) in the test on UACC-62; 60.7 µM (inactive) with HL-60; > 100 µM (inactive) with EKVX; > 100 µM (inactive) in the test on OVCAR-3. For the same compound, the GI50 is 95.5 µM (inactive) with BT-549; > 100 µM (inactive) with SNB-19; > 100 µM (inactive) in the test on UO-31; > 100 µM (inactive) in the test with SF-268; > 100 µM (inactive) in the test on SR; 64.9 µM (inactive) with NCI/ADR-RES.

For `COc1ccc(OC)c(CNc2ccc(O)c(C(=O)NCCc3ccc(F)cc3)c2)c1`, the GI50 in the test on MOLT-4 was 4.05 µM (inactive); in the test with SF-539, 15.8 µM (inactive); with HCT-15, 12.6 µM; in the test on MDA-N it was 4.06 µM (inactive); with COLO 205 it was 18.6 µM (inactive); in the test on MDA-MB-435 it was 2.74 µM (inactive). Further, the GI50 in the test on OVCAR-4 was 9.95 µM (inactive); with UACC-62, 8.89 µM (inactive); in the test on CCRF-CEM, 7.23 µM (inactive); in the test with EKVX, 19.7 µM (inactive); with OVCAR-3 it was 7.57 µM (inactive); in the test on BT-549, 17.1 µM (inactive). Also, the GI50 in the test on SNB-19 was 15.1 µM (inactive); with UO-31, 7.18 µM (inactive); with SF-268, 11.6 µM (inactive); in the test on SR it was 3.44 µM (inactive); in the test on NCI/ADR-RES it was 10.1 µM (inactive).

As for `CC(NC(NC(C)C12CC3CC(CC(C3)C1)C2)=C(C(Cl)=C(Cl)Cl)[N+](=O)[O-])C12CC3CC(CC(C3)C1)C2` (stereo unspecified), the GI50 with MOLT-4 is 19.5 µM (inactive); with Malme-3M it was 26.7 µM (inactive); with SF-539, 20.9 µM (inactive); in the test with HCT-15 it was 18.7 µM; in the test with MDA-N it was 22.7 µM (inactive); in the test with COLO 205, 8.51 µM (inactive). Further, the GI50 in the test with MDA-MB-435 was 27.2 µM (inactive); in the test with OVCAR-4, 8.3 µM (inactive); with UACC-62, 30 µM (inactive); in the test on CCRF-CEM, 0.923 µM (active); in the test with EKVX, 11.3 µM (inactive); in the test on OVCAR-3, 9.71 µM (inactive). In addition, the GI50 in the test with BT-549 was 24 µM (inactive); with SNB-19, 30.2 µM (inactive); in the test with UO-31, 31.9 µM (inactive); with SF-268, 21.8 µM (inactive); in the test on SR, 3.9 µM (inactive); with NCI/ADR-RES, 12 µM (inactive).

`O=C1/C(=C/c2ccc(Cl)cc2)CNC/C1=C\c1ccc(Cl)cc1`: the GI50 in the test with MOLT-4 is 3.72 µM (inactive); with Malme-3M, 6.08 µM (inactive); in the test with SF-539, 1.15 µM (inactive); in the test with HCT-15, 1.16 µM; with MDA-N it was 2.71 µM (inactive); with COLO 205 it was 2.14 µM (inactive). Further, the GI50 was 2.82 µM (inactive) with MDA-MB-435; 2.43 µM (inactive) in the test on UACC-62; 2.01 µM (inactive) with OVCAR-3; 1.18 µM (inactive) in the test on BT-549; 1.82 µM (inactive) in the test on SNB-19; 1.51 µM (inactive) in the test with SF-268. The GI50 is 0.495 µM (active) with SR and 2.91 µM (inactive) in the test on NCI/ADR-RES.

Source of the values: ChEMBL document CHEMBL1201862, “PubChem BioAssay data set” (2004).
